Results published in ChEMBL document CHEMBL5370585, “Exploration and Biological Evaluation of 1,3-Diamino-7H-pyrrol[3,2-f]quinazoline Derivatives as Dihydrofolate Reductase Inhibitors” (J Med Chem, 2023).
Values after ≈ are worked out from the molar mass of the structure shown. Active and inactive are the calls of the source. The rule behind the calls is not given here.

Tests used:
Staphylococcus aureus [1] = test: Antibacterial activity against Staphylococcus aureus ATCC 29213 incubated for 16 to 18 hrs by CLSI based broth dilution method; format: functional; conditions: time 16-18 hrs
Staphylococcus aureus [2] = test: Antibacterial activity against methicillin-resistant Staphylococcus aureus ATCC 43300 incubated for 16 to 18 hrs by CLSI based broth dilution method; format: functional; conditions: time 16-18 hrs
[3] = test system: Staphylococcus epidermidis; test: Antibacterial activity against Staphylococcus epidermidis ATCC 12228 incubated for 16 to 18 hrs by CLSI based broth dilution method; format: functional; conditions: time 16-18 hrs
Acinetobacter baumannii [4] = test: Antibacterial activity against Acinetobacter baumannii ATCC 19606 incubated for 16 to 18 hrs by CLSI based broth dilution method; format: functional; conditions: time 16-18 hrs
Enterococcus faecalis [5] = test: Antibacterial activity against Enterococcus faecalis ATCC 29212 incubated for 16 to 18 hrs by CLSI based broth dilution method; format: functional; conditions: time 16-18 hrs
Escherichia coli [6] = test: Antibacterial activity against Escherichia coli ATCC 25922 incubated for 16 to 18 hrs by CLSI based broth dilution method; format: functional; conditions: time 16-18 hrs
Escherichia coli [7] = test: Antibacterial activity against Escherichia coli ATCC 25922 assessed as inhibition of bacterial growth at upto 8 times MIC measured upto 28 hrs by time kill curve assay; format: functional, organism-based
Staphylococcus aureus [8] = test: Antibacterial activity against methicillin-resistant Staphylococcus aureus ATCC 43300 assessed as inhibition of bacterial growth at upto 8 times MIC measured upto 28 hrs by time kill curve assay; format: functional, organism-based
Staphylococcus aureus [9] = test: Antibacterial activity against Staphylococcus aureus ATCC 29213 incubated for 16 to 18 hrs in absence of human plasma by CLSI based broth dilution method; format: functional; conditions: time 16-18 hrs
Staphylococcus aureus [10] = test: Antibacterial activity against Staphylococcus aureus ATCC 29213 incubated for 16 to 18 hrs in presence of human plasma by CLSI based broth dilution method; format: functional; conditions: time 16-18 hrs
Staphylococcus aureus [11] = test: Antibacterial activity against methicillin-resistant Staphylococcus aureus ATCC 43300 incubated for 16 to 18 hrs in absence of human plasma by CLSI based broth dilution method; format: functional; conditions: time 16-18 hrs
Staphylococcus aureus [12] = test: Antibacterial activity against methicillin-resistant Staphylococcus aureus ATCC 43300 incubated for 16 to 18 hrs in presence of human plasma by CLSI based broth dilution method; format: functional; conditions: time 16-18 hrs
Escherichia coli [13] = test: Antibacterial activity against Escherichia coli ATCC 25922 incubated for 16 to 18 hrs in absence of human plasma by CLSI based broth dilution method; format: functional; conditions: time 16-18 hrs
Escherichia coli [14] = test: Antibacterial activity against Escherichia coli ATCC 25922 incubated for 16 to 18 hrs in presence of human plasma by CLSI based broth dilution method; format: functional; conditions: time 16-18 hrs
Staphylococcus aureus [15] = test: Drug resistance against methicillin-resistant Staphylococcus aureus ATCC 43300 assessed as increase in MIC measured after 10 passaging for 24 hrs; format: functional, organism-based
MCF7 = test: Cytotoxicity against human MCF7 cells measured after 72 hrs by MTT assay; format: functional, cell-based; conditions: MCF7, 72 h
HGC-27 = test: Cytotoxicity against human HGC-27 cells measured after 72 hrs by MTT assay; format: functional, cell-based; conditions: HGC-27, 72 h
HCT-116 = test: Cytotoxicity against human HCT-116 cells measured after 72 hrs by MTT assay; format: functional, cell-based; conditions: HCT-116, 72 h
HepG2 = test: Cytotoxicity against human HepG2 cells measured after 72 hrs by MTT assay; format: functional, cell-based; conditions: HepG2, 72 h
[16] = Toxicity in ICR mouse assessed as median lethal dose administered as single IP dose measured upto 8 days; conditions: in vivo, time < 8 day
[17] = Toxicity in ip dosed ICR mouse assessed as animal death at high dose measured upto 8 days; format: organism-based; conditions: in vivo, 192 h, time < 8 day
[18] = Toxicity in BALB/c mouse xenografted with mouse EMT6 cells at 24 mg/kg, ip administered every 3 days for 14 consecutive days; format: organism-based; conditions: in vivo, 336 h, time 14 day
[19] = Toxicity in BALB/c mouse xenografted with mouse EMT6 cells assessed as effect on body weight at 20 mg/kg, ip measured on day 1 (reference value: 18.5 +/-0.5g); format: organism-based; conditions: in vivo, 24 h, time 1 day
[20] = Toxicity in BALB/c mouse xenografted with mouse EMT6 cells assessed as effect on body weight at 20 mg/kg, ip measured on day 14 (reference value: 21.6 +/-0.6g); format: organism-based; conditions: in vivo, 336 h, time 14 day
EMT6 [21] = test: Antitumor activity against mouse EMT6 cells xenografted in BALB/c mouse model assessed as tumor weight at 20 mg/kg,ip administered every 3 days for 14 consecutive days (reference value: 1.53 +/-0.26g); format: functional; conditions: time 14 day
EMT6 [22] = test: Antitumor activity against mouse EMT6 cells xenografted in BALB/c mouse model assessed as tumor growth inhibition at 20 mg/kg,ip administered every 3 days for 14 consecutive days relative to control; format: functional; design: scale not given: the % may be the effect or the level left; conditions: time 14 day
Staphylococcus aureus [23] = test: Antibacterial activity against methicillin-sensitive Staphylococcus aureus 15-1 incubated for 16 to 18 hrs by CLSI based broth dilution method; format: functional; conditions: time 16-18 hrs
Staphylococcus aureus [24] = test: Antibacterial activity against methicillin-sensitive Staphylococcus aureus 15-2 incubated for 16 to 18 hrs by CLSI based broth dilution method; format: functional; conditions: time 16-18 hrs
Staphylococcus aureus [25] = test: Antibacterial activity against methicillin-sensitive Staphylococcus aureus ATCC 29213 incubated for 16 to 18 hrs by CLSI based broth dilution method; format: functional; conditions: time 16-18 hrs
Staphylococcus aureus [26] = test: Antibacterial activity against methicillin-sensitive Staphylococcus aureus ATCC 25923 incubated for 16 to 18 hrs by CLSI based broth dilution method; format: functional; conditions: time 16-18 hrs
Staphylococcus aureus [27] = test: Antibacterial activity against methicillin-resistant Staphylococcus aureus ATCC 33591 incubated for 16 to 18 hrs by CLSI based broth dilution method; format: functional; conditions: time 16-18 hrs
Staphylococcus aureus [28] = test: Antibacterial activity against vancomycin intermediate Staphylococcus aureus ATCC 700788 incubated for 16 to 18 hrs by CLSI based broth dilution method; format: functional; conditions: time 16-18 hrs
Staphylococcus aureus [29] = test: Antibacterial activity against vancomycin intermediate Staphylococcus aureus ATCC 700699 incubated for 16 to 18 hrs by CLSI based broth dilution method; format: functional; conditions: time 16-18 hrs
Enterococcus faecalis [30] = test: Antibacterial activity against Enterococcus faecalis EFA19-1 incubated for 16 to 18 hrs by CLSI based broth dilution method; format: functional; conditions: time 16-18 hrs
Enterococcus faecalis [31] = test: Antibacterial activity against Enterococcus faecalis EFA19-2 incubated for 16 to 18 hrs by CLSI based broth dilution method; format: functional; conditions: time 16-18 hrs
Enterococcus = test: Antibacterial activity against Vancomycin-resistant Enterococcus ATCC 51575 incubated for 16 to 18 hrs by CLSI based broth dilution method; format: functional; conditions: time 16-18 hrs
Escherichia coli [32] = test: Antibacterial activity against Escherichia coli ATCC BAA-2340 incubated for 16 to 18 hrs by CLSI based broth dilution method; format: functional; conditions: time 16-18 hrs
Escherichia coli [33] = test: Antibacterial activity against Escherichia coli ECO 15-1 incubated for 16 to 18 hrs by CLSI based broth dilution method; format: functional; conditions: time 16-18 hrs
Klebsiella pneumoniae [34] = test: Antibacterial activity against Klebsiella pneumoniae 15-1 assessed as reduction in microbial growth incubated for 16 to 18 hrs by CLSI based broth dilution method; format: functional; conditions: time 16-18 hrs
Klebsiella pneumoniae [35] = test: Antibacterial activity against Klebsiella pneumoniae ATCC 700603 assessed as reduction in microbial growth incubated for 16 to 18 hrs by CLSI based broth dilution method; format: functional; conditions: time 16-18 hrs
Acinetobacter baumannii [36] = test: Antibacterial activity against Acinetobacter baumannii ATCC 19606 assessed as reduction in microbial growth incubated for 16 to 18 hrs by CLSI based broth dilution method; format: functional; conditions: time 16-18 hrs
Acinetobacter baumannii [37] = test: Antibacterial activity against Acinetobacter baumannii 20-1 incubated for 16 to 18 hrs by CLSI based broth dilution method; format: functional; conditions: time 16-18 hrs
Acinetobacter baumannii [38] = test: Antibacterial activity against Acinetobacter baumannii 20-2 incubated for 16 to 18 hrs by CLSI based broth dilution method; format: functional; conditions: time 16-18 hrs
Pseudomonas aeruginosa = test: Antibacterial activity against Pseudomonas aeruginosa ATCC 27853 incubated for 16 to 18 hrs by CLSI based broth dilution method; format: functional; conditions: time 16-18 hrs
[39] = target: T1, Dihydrofolate reductase (Homo sapiens) (UniProt P00374); test: Inhibition of human DHFR at 1 uM incubated for 10 mins in presence of NADPH by colorimetry based analysis relative to control
T1 sequence (whole entry): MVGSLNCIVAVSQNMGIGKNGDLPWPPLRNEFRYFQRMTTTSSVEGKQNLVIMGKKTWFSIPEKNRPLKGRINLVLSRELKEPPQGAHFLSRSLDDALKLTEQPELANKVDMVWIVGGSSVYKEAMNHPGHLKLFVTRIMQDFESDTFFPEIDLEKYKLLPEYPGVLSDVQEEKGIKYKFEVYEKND

SMILES: Nc1nc(N)c2c(ccc3c2ccn3Cc2cccc3scnc23)n1
- MIC (Staphylococcus aureus [1]): 0.008 µg/mL (≈ 0.0231 µM)
- MIC (Staphylococcus aureus [2]): 0.004 µg/mL (≈ 0.0115 µM)
- MIC [3]: ≤ 0.004 µg/mL
- MIC (Acinetobacter baumannii [4]): 0.5 µg/mL (≈ 1.44 µM)
- MIC (Enterococcus faecalis [5]): ≤ 0.004 µg/mL
- MIC (Escherichia coli [6]): 0.03 µg/mL (≈ 0.0866 µM)
- Activity (Escherichia coli [7]): Active
- Activity (Staphylococcus aureus [8]): Active
- MIC (Staphylococcus aureus [9]): 0.008 µg/mL (≈ 0.0231 µM)
- MIC (Staphylococcus aureus [10]): 0.25 µg/mL
- MIC (Staphylococcus aureus [11]): ≤ 0.004 µg/mL
- MIC (Staphylococcus aureus [12]): 0.25 µg/mL
- MIC (Escherichia coli [13]): 0.03 µg/mL (≈ 0.0866 µM)
- MIC (Escherichia coli [14]): 0.25 µg/mL
- Activity (Staphylococcus aureus [15]): Active
- IC50 (MCF7): 110 nM
- IC50 (HGC-27): 11 nM
- IC50 (HCT-116): 32 nM
- IC50 (HepG2): 170 nM
- LD50 at 192 h [16]: 88.9 mg/kg
- Activity [17]: Toxic

SMILES: CC(=O)O[C@H]1C(=O)[C@@]2(C)[C@H]([C@H](OC(=O)c3ccccc3)[C@]3(O)C[C@H](OC(=O)[C@H](O)[C@@H](NC(=O)c4ccccc4)c4ccccc4)C(C)=C1C3(C)C)[C@]1(OC(C)=O)CO[C@@H]1C[C@@H]2O [PACLITAXEL]
- Activity [18]: Non-Toxic
- Activity [19]: 18.6 g
- Activity [20]: 20.1 g
- Activity (EMT6 [21]): 0.71 g
- Activity (EMT6 [22]): 53.2%

SMILES: Nc1nc(N)c2c(ccc3c2ccn3Cc2cccc3ccccc23)n1
- MIC (Staphylococcus aureus [1]): 0.125 µg/mL (≈ 0.368 µM)
- MIC (Staphylococcus aureus [2]): 0.06 µg/mL (≈ 0.177 µM)
- MIC [3]: 1 µg/mL (≈ 2.95 µM)
- MIC (Acinetobacter baumannii [4]): 1 µg/mL (≈ 2.95 µM)
- MIC (Enterococcus faecalis [5]): 0.125 µg/mL (≈ 0.368 µM)
- MIC (Escherichia coli [6]): 1 µg/mL (≈ 2.95 µM)
- MIC (Staphylococcus aureus [23]): ≤ 0.03 µg/mL
- MIC (Staphylococcus aureus [24]): ≤ 0.03 µg/mL
- MIC (Staphylococcus aureus [25]): ≤ 0.03 µg/mL
- MIC (Staphylococcus aureus [26]): ≤ 0.03 µg/mL
- MIC (Staphylococcus aureus [27]): ≤ 0.03 µg/mL
- MIC (Staphylococcus aureus [28]): ≤ 0.03 µg/mL
- MIC (Staphylococcus aureus [29]): 0.06 µg/mL (≈ 0.177 µM)
- MIC (Enterococcus faecalis [30]): ≤ 0.03 µg/mL
- MIC (Enterococcus faecalis [31]): ≤ 0.03 µg/mL
- MIC (Enterococcus): ≤ 0.03 µg/mL
- MIC (Escherichia coli [32]): > 64 µg/mL
- MIC (Escherichia coli [33]): > 64 µg/mL
- MIC (Klebsiella pneumoniae [34]): 4 µg/mL
- MIC (Klebsiella pneumoniae [35]): 4 µg/mL
- MIC (Acinetobacter baumannii [36]): 1 µg/mL
- MIC (Acinetobacter baumannii [37]): 32 µg/mL (≈ 94.3 µM)
- MIC (Acinetobacter baumannii [38]): 2 µg/mL (≈ 5.89 µM)
- MIC (Pseudomonas aeruginosa): > 64 µg/mL
- inhibition [39]: 83.9%
- IC50 (MCF7): 460 nM
- IC50 (HGC-27): 1010 nM
- IC50 (HCT-116): > 10000 nM
- IC50 (HepG2): 520 nM
